Test results taken from patent US11254663B2 (BRISTOL-MYERS SQUIBB COMPANY, priority 2019, dated 2022).

These molecules were tested against FXR (Homo sapiens (Human), UniProt Q96RI1) (assay: FXR EC50 (FXR agonist potency reported with each Example)).
Format: cell-based

FXR, sequence (Q96RI1 262-486): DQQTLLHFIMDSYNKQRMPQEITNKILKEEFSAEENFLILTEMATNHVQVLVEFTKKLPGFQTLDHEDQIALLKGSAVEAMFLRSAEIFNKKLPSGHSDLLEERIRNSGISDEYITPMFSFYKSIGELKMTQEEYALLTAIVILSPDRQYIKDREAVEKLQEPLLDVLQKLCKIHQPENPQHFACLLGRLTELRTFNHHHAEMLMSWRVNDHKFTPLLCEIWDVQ

Row | Structure (SMILES) | EC50
1 | O=C(N(CC12CCC(c3nc(C4CC4)no3)(CC1)CC2)c1cccc(-c2noc(C(F)F)n2)c1)C12CC(F)(C1)C2 [Example 105, N-((4-(3-cyclopropyl-1,2,4-oxadiazol-5-yl)bicyclo[2.2.2]octan-1-yl)methyl)-N-(3-(5-(difluoromethyl)-1,2,4-oxadiazol-3-yl)phenyl)-3-fluorobicyclo[1.1.1]pentane-1-carboxamide] | 57 nM
2 | CC1(c2nc(-c3cccc(N(CC45CCC(c6nc(C7CC7)no6)(CC4)CC5)C(=O)C45CC(F)(C4)C5)c3)no2)CC1 [Example 106, N-((4-(3-cyclopropyl-1,2,4-oxadiazol-5-yl)bicyclo[2.2.2]octan-1-yl)methyl)-3-fluoro-N-(3-(5-(1-methylcyclopropyl)-1,2,4-oxadiazol-3-yl)phenyl)bicyclo[1.1.1]pentane-1-carboxamide] | 58 nM
3 | CC(C)(C)c1nc(-c2cccc(N(CC34CCC(c5nc(C6CC6)no5)(CC3)CC4)C(=O)C34CC(F)(C3)C4)c2)no1 [Example 107, N-(3-(5-(tert-butyl)-1,2,4-oxadiazol-3-yl)phenyl)-N-((4-(3-cyclopropyl-1,2,4-oxadiazol-5-yl)bicyclo[2.2.2]octan-1-yl)methyl)-3-fluorobicyclo[1.1.1]pentane-1-carboxamide] | 18 nM
4 | O=C(N(CC12CCC(c3nc(C4CC4)no3)(CC1)CC2)c1cccc(-c2noc(C(F)(F)F)n2)c1)C12CC(F)(C1)C2 [Example 108, N-((4-(3-cyclopropyl-1,2,4-oxadiazol-5-yl)bicyclo[2.2.2]octan-1-yl)methyl)-3-fluoro-N-(3-(5-(trifluoromethyl)-1,2,4-oxadiazol-3-yl)phenyl)bicyclo[1.1.1]pentane-1-carboxamide] | 144 nM
5 | CC(C)c1nc(-c2cccc(N(CC34CCC(c5nc(C6CC6)no5)(CC3)CC4)C(=O)C34CC(F)(C3)C4)c2)no1 [Example 109, N-((4-(3-cyclopropyl-1,2,4-oxadiazol-5-yl)bicyclo[2.2.2]octan-1-yl)methyl)-3-fluoro-N-(3-(5-isopropyl-1,2,4-oxadiazol-3-yl)phenyl)bicyclo[1.1.1]pentane-1-carboxamide] | 55 nM
6 | O=C(N(CC12CCC(c3nc(C4CC4)no3)(CC1)CC2)c1cccc(-c2noc(C3(O)CC3)n2)c1)C12CC(F)(C1)C2 [Example 110, N-((4-(3-cyclopropyl-1,2,4-oxadiazol-5-yl)bicyclo[2.2.2]octan-1-yl)methyl)-3-fluoro-N-(3-(5-(1-hydroxycyclopropyl)-1,2,4-oxadiazol-3-yl)phenyl)bicyclo[1.1.1]pentane-1-carboxamide] | 88 nM
7 | CC(=O)NC1(c2nc(-c3cccc(N(CC45CCC(c6nc(C7CC7)no6)(CC4)CC5)C(=O)C45CC(F)(C4)C5)c3)no2)CC1 [Example 111, N-(3-(5-(1-acetamidocyclopropyl)-1,2,4-oxadiazol-3-yl)phenyl)-N-((4-(3-cyclopropyl-1,2,4-oxadiazol-5-yl)bicyclo[2.2.2]octan-1-yl)methyl)-3-fluorobicyclo[1.1.1]pentane-1-carboxamide] | 120 nM
8 | CC(F)(F)c1nc(-c2cccc(N(CC34CCC(c5nc(C6CC6)no5)(CC3)CC4)C(=O)C34CC(F)(C3)C4)c2)no1 [Example 112, N-((4-(3-cyclopropyl-1,2,4-oxadiazol-5-yl)bicyclo[2.2.2]octan-1-yl)methyl)-N-(3-(5-(1,1-difluoroethyl)-1,2,4-oxadiazol-3-yl)phenyl)-3-fluorobicyclo[1.1.1]pentane-1-carboxamide] | 68 nM
9 | CC1(c2nc(-c3cccc(N(CC45CCC(c6nc(C7CC7)no6)(CC4)CC5)C(=O)C45CC(F)(C4)C5)c3)no2)COC1 [Example 113, N-((4-(3-cyclopropyl-1,2,4-oxadiazol-5-yl)bicyclo[2.2.2]octan-1-yl)methyl)-3-fluoro-N-(3-(5-(3-methyloxetan-3-yl)-1,2,4-oxadiazol-3-yl)phenyl)bicyclo[1.1.1]pentane-1-carboxamide] | 121 nM
10 | O=C(N(CC12CCC(c3noc(C45CC(F)(C4)C5)n3)(CC1)CC2)c1cccc(-c2nc(C3CC3)no2)c1)C12CC(F)(C1)C2 [Example 114, N-(3-(3-cyclopropyl-1,2,4-oxadiazol-5-yl)phenyl)-3-fluoro-N-((4-(5-(3-fluorobicyclo[1.1.1]pentan-1-yl)-1,2,4-oxadiazol-3-yl)bicyclo[2.2.2]octan-1-yl)methyl)bicyclo[1.1.1]pentane-1-carboxamide] | 177 nM
11 | CC1(c2nc(C34CCC(CN(C(=O)C56CC(F)(C5)C6)c5cccc(-c6nc(C7CC7)no6)c5)(CC3)CC4)no2)CC1 [Example 115, N-(3-(3-cyclopropyl-1,2,4-oxadiazol-5-yl)phenyl)-3-fluoro-N-((4-(5-(1-methylcyclopropyl)-1,2,4-oxadiazol-3-yl)bicyclo[2.2.2]octan-1-yl)methyl) bicyclo[1.1.1]pentane-1-carboxamide] | 35 nM
12 | O=C(N(CC12CCC(c3noc(C4CC4)n3)(CC1)CC2)c1cccc(-c2nc(C3CC3)no2)c1)C12CC(F)(C1)C2 [Example 116, N-((4-(5-cyclopropyl-1,2,4-oxadiazol-3-yl)bicyclo[2.2.2]octan-1-yl)methyl)-N-(3-(3-cyclopropyl-1,2,4-oxadiazol-5-yl)phenyl)-3-fluorobicyclo[1.1.1]pentane-1-carboxamide] | 117 nM
13 | O=C(N(CC12CCC(c3noc(C(F)F)n3)(CC1)CC2)c1cccc(-c2nc(C3CC3)no2)c1)C12CC(F)(C1)C2 [Example 117, N-(3-(3-cyclopropyl-1,2,4-oxadiazol-5-yl)phenyl)-N-((4-(5-(difluoromethyl)-1,2,4-oxadiazol-3-yl)bicyclo[2.2.2]octan-1-yl)methyl)-3-fluorobicyclo[1.1.1]pentane-1-carboxamide] | 12 nM
14 | O=C(N(CC12CCC(c3noc(C4(C(F)(F)F)CC4)n3)(CC1)CC2)c1cccc(-c2nc(C3CC3)no2)c1)C12CC(F)(C1)C2 [Example 118, N-(3-(3-cyclopropyl-1,2,4-oxadiazol-5-yl)phenyl)-3-fluoro-N-((4-(5-(1-(trifluoromethyl)cyclopropyl)-1,2,4-oxadiazol-3-yl)bicyclo[2.2.2]octan-1-yl)methyl) bicyclo[1.1.1]pentane-1-carboxamide] | 30 nM
15 | CC(C)(C)c1nc(C23CCC(CN(C(=O)C45CC(F)(C4)C5)c4cccc(-c5nc(C6CC6)no5)c4)(CC2)CC3)no1 [Example 119, N-((4-(5-(tert-butyl)-1,2,4-oxadiazol-3-yl)bicyclo[2.2.2]octan-1-yl)methyl)-N-(3-(3-cyclopropyl-1,2,4-oxadiazol-5-yl)phenyl)-3-fluorobicyclo[1.1.1]pentane-1-carboxamide] | 15 nM
16 | CC(C)c1nc(C23CCC(CN(C(=O)C45CC(F)(C4)C5)c4cccc(-c5nc(C6CC6)no5)c4)(CC2)CC3)no1 [Example 120, N-(3-(3-cyclopropyl-1,2,4-oxadiazol-5-yl)phenyl)-3-fluoro-N-((4-(5-isopropyl-1,2,4-oxadiazol-3-yl)bicyclo[2.2.2]octan-1-yl)methyl)bicyclo[1.1.1]pentane-1-carboxamide] | 15 nM
17 | CC(F)(F)c1nc(C23CCC(CN(C(=O)C45CC(F)(C4)C5)c4cccc(-c5nc(C6CC6)no5)c4)(CC2)CC3)no1 [Example 121, N-(3-(3-cyclopropyl-1,2,4-oxadiazol-5-yl)phenyl)-N-((4-(5-(1,1-difluoroethyl)-1,2,4-oxadiazol-3-yl)bicyclo[2.2.2]octan-1-yl)methyl)-3-fluorobicyclo[1.1.1]pentane-1-carboxamide] | 22 nM
18 | CC1(c2nc(C34CCC(CN(C(=O)C56CC(F)(C5)C6)c5cccc(-c6nc(C7CC7)no6)c5)(CC3)CC4)no2)COC1 [Example 122, N-(3-(3-cyclopropyl-1,2,4-oxadiazol-5-yl)phenyl)-3-fluoro-N-((4-(5-(3-methyloxetan-3-yl)-1,2,4-oxadiazol-3-yl)bicyclo[2.2.2]octan-1-yl)methyl)bicyclo[1.1.1]pentane-1-carboxamide] | 28 nM
19 | O=C(N(CC12CCC(c3noc(C4CC4(F)F)n3)(CC1)CC2)c1cccc(-c2nc(C3CC3)no2)c1)C12CC(F)(C1)C2 (stereo not drawn) [Example 123, N-(3-(3-cyclopropyl-1,2,4-oxadiazol-5-yl)phenyl)-N-((4-(5-(2,2-difluorocyclopropyl)-1,2,4-oxadiazol-3-yl)bicyclo[2.2.2]octan-1-yl)methyl)-3-fluorobicyclo[1.1.1]pentane-1-carboxamide] | 73 nM
20 | Cn1nc(C23CCC(CN(C(=O)C45CC(F)(C4)C5)c4cccc(-c5nc(C6CC6)no5)c4)(CC2)CC3)cc1C1CC1 [Example 124, N-(3-(3-cyclopropyl-1,2,4-oxadiazol-5-yl)phenyl)-N-((4-(5-cyclopropyl-1-methyl-1H-pyrazol-3-yl)bicyclo[2.2.2]octan-1-yl)methyl)-3-fluorobicyclo[1.1.1]pentane-1-carboxamide] | 89 nM
21 | Cn1nc(C23CCC(CN(C(=O)C4CC(F)(F)C4)c4cccc(-c5nc(C6CC6)no5)c4)(CC2)CC3)cc1C1CC1 [Example 125, N-(3-(3-cyclopropyl-1,2,4-oxadiazol-5-yl)phenyl)-N-((4-(5-cyclopropyl-1-methyl-1H-pyrazol-3-yl)bicyclo[2.2.2]octan-1-yl)methyl)-3,3-difluorocyclobutane-1-carboxamide] | 480 nM
22 | Cn1nc(C2CC2)cc1C12CCC(CN(C(=O)C34CC(F)(C3)C4)c3cccc(-c4nc(C5CC5)no4)c3)(CC1)CC2 [Example 126, N-(3-(3-cyclopropyl-1,2,4-oxadiazol-5-yl)phenyl)-N-((4-(3-cyclopropyl-1-methyl-1H-pyrazol-5-yl)bicyclo[2.2.2]octan-1-yl)methyl)-3-fluorobicyclo[1.1.1]pentane-1-carboxamide] | 87 nM
23 | Cn1nc(C2CC2)cc1C12CCC(CN(C(=O)C3CC(F)(F)C3)c3cccc(-c4nc(C5CC5)no4)c3)(CC1)CC2 [Example 127, N-(3-(3-cyclopropyl-1,2,4-oxadiazol-5-yl)phenyl)-N-((4-(3-cyclopropyl-1-methyl-1H-pyrazol-5-yl)bicyclo[2.2.2]octan-1-yl)methyl)-3,3-difluorocyclobutane-1-carboxamide] | 374 nM
24 | COc1ccc(C23CCC(CN(C(=O)C45CC(F)(C4)C5)c4cccc(-c5nc(C6CC6)no5)c4)(CC2)CO3)cc1 [Example 128, N-(3-(3-Cyclopropyl-1,2,4-oxadiazol-5-yl)phenyl)-3-fluoro-N-((1-(4-methoxyphenyl)-2-oxabicyclo[2.2.2]octan-4-yl)methyl)bicyclo[1.1.1]pentane-1-carboxamide] | 403 nM
